The values below come from ChEMBL document CHEMBL5465560, “Selectivity Literature for EUbOPEN Chemogenomic Library” (2024).

For assay [1], the target named is T1, Serine/threonine-protein kinase ULK1 (Homo sapiens) (UniProt O75385).
T1 sequence (whole entry): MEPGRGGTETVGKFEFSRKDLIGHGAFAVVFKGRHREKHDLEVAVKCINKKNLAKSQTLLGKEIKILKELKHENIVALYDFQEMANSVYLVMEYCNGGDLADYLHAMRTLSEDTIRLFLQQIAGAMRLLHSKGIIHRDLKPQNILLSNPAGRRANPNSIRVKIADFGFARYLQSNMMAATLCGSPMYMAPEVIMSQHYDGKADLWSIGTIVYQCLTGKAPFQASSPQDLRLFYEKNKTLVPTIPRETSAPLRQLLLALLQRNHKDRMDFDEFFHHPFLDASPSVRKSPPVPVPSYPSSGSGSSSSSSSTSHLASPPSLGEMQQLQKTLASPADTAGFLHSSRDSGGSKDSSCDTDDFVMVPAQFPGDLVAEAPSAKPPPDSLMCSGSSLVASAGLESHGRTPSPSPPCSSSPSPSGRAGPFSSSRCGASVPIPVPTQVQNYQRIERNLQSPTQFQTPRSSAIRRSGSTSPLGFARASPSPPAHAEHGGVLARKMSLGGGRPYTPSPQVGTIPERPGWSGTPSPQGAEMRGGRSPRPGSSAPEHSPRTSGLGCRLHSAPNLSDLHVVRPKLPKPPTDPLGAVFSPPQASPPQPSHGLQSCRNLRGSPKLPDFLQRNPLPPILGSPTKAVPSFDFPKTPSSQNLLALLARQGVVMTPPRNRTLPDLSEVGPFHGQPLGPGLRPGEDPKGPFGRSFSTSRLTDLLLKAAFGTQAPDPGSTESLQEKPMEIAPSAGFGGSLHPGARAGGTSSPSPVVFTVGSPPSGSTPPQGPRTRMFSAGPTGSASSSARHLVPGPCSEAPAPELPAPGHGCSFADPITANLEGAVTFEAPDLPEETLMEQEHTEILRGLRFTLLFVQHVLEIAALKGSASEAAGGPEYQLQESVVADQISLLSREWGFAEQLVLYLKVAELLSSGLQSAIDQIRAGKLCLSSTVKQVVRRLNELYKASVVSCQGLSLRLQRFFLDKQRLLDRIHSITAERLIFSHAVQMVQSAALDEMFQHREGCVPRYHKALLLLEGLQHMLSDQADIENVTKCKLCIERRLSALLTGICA
In words: Selectivity interaction (LanthaScreen Eu Kinase Binding Assay) EUB0001632a ULK1. Particulars: at 10 µM. On the technique in general: Time-resolved FRET reads energy transfer from a long-lived donor to a nearby acceptor.

Assay [2] has as its target T2, Megakaryocyte-associated tyrosine-protein kinase (Homo sapiens) (UniProt P42679).
T2 sequence (whole entry): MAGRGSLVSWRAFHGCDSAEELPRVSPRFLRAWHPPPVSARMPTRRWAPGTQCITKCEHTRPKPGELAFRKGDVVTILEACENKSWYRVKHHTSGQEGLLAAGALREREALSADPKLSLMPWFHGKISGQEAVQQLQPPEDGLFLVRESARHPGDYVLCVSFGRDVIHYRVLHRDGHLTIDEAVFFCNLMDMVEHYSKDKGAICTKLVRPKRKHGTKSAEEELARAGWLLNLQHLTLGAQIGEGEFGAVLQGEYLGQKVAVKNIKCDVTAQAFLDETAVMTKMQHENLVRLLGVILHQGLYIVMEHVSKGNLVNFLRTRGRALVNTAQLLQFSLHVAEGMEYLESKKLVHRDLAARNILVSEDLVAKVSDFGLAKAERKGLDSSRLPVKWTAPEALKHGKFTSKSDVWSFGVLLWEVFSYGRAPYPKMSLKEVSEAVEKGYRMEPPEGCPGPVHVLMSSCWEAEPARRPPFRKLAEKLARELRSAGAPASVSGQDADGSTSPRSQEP
In words: Selectivity interaction (KinomeScan (DiscoverX)) EUB0001619a MATK. To be noted: at 1 µM.

Assay [3] concerns the target Eukaryotic translation initiation factor 2-alpha kinase 1 (Homo sapiens) (UniProt Q9BQI3). In words: Selectivity interaction (KinomeScan (DiscoverX)) EUB0000618a EIF2AK1. Particulars: at 10 µM.
The target in assay [4] is T3, Serine/threonine-protein kinase 3 (Homo sapiens) (UniProt Q13188).
T3 sequence (whole entry): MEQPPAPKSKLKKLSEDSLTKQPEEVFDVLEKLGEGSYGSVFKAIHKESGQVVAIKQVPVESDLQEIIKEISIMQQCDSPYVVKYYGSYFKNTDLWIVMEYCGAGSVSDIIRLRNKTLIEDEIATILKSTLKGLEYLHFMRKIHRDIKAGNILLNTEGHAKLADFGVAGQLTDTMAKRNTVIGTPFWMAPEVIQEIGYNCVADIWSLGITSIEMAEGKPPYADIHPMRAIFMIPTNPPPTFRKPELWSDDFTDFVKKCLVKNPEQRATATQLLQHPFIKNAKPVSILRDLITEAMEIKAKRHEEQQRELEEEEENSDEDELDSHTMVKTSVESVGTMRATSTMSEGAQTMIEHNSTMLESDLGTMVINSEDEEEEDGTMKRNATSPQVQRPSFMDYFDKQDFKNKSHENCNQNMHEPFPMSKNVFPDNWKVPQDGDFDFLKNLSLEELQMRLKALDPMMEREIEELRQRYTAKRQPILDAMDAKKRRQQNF
In words: Selectivity interaction (Upstate Kinase Profiler service (Millipore)) EUB0000056c STK3. Particulars: at 1 µM.

Eukaryotic translation initiation factor 2-alpha kinase 1 (Homo sapiens), sequence (Q9BQI3 whole entry): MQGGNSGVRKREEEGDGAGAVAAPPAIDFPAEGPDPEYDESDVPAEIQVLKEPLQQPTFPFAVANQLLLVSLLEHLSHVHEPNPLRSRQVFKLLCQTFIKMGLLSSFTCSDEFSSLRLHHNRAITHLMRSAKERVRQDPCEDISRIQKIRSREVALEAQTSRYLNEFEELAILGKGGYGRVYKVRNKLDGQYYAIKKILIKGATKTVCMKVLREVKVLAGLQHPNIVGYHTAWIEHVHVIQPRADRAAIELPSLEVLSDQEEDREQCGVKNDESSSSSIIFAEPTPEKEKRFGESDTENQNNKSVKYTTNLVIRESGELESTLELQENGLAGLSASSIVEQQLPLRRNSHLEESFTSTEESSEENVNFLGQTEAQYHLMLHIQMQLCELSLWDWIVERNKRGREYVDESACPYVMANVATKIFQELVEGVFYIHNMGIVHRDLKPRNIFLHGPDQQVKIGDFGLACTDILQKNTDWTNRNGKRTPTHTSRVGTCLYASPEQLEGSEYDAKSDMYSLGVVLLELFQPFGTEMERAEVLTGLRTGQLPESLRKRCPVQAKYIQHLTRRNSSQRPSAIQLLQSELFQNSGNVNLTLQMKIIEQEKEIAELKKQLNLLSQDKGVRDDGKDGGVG

On to `Cn1cc(-n2cnc3c(NCc4nc5cc(Cl)c(Cl)cc5[nH]4)nc(N4CCOCC4)nc32)cn1`, for which the % of inhibition in assay [1] was -7.27%.
The compound `N#Cc1cccc(-c2c[nH]c3ncnc(N4CCOCC4)c23)c1` showed a % of control in assay [2] of 82%.
In assay [3], `O[C@H]1CC[C@H](Nc2ncc3nc(Nc4c(F)cc(F)cc4F)n([C@H]4CCOC4)c3n2)CC1` yielded a % of control of 100%.
Take `Cc1ccc(-c2ccc3c(ccc4sc5c(c43)NC[C@@H](C)NC5=O)n2)cn1`: the % of inhibition in assay [4] was -17%.
